Assay results as given in paper PMC4603705, “A bioinspired peptide scaffold with high antibiotic activity and low in vivo toxicity” (Scientific Reports, 2015).
Converted amounts (≈) assume the structure as drawn. Bridge positions count the residues as written; N and C are the ends. Square brackets hold non-standard residues; d marks the D form. Peptide text beside a SMILES is read from it. * marks the point of attachment. Lauroyl = CCCCCCCCCCCC(=O)*; Nonanoyl = CCCCCCCCC(=O)*; Nle = CCCC[C@H](N)C(=O)O; Dab = NCC[C@H](N)C(=O)O

How the values were obtained:
P. aeruginosa ATTC 9027 = assay type: cell-based, Pseudomonas aeruginosa; conditions: ATTC 9027
Experimental: (§1) MICs were measured after 18–20 h of incubation in sterile 96-well plates (Corning Costar 3598 microtiter plates) in Mueller Hinton Broth (MHB) culture medium, (Difco, USA), according to well known in vitro protocols. Bacterial strains in Table 1 were: P. aeruginosa ATTC 9027, E. coli ATTC 8739, S. aureus ATTC 6538, and E. faecalis ATTC 29212. MICs shown in table 4 were performed by Mary Conrad at Cubist Pharmaceuticals (Lexington, MA) in non-binding surface plates.

E. coli ATTC 8739 = assay type: cell-based, Escherichia coli; conditions: ATTC 8739
Experimental: as §1

[1] = system: PC12 (treated with NGF, neuronal model); assay: In vitro cytotoxicity (WST-1 cell viability), PC12; assay type: cell-based; conditions: WST-1, NGF treated
Experimental: (§2) Cell viability assays were performed using the tetrazolium dye WST1 (similar to MTT) on human dermal fibroblasts (3T3 hDF), MDCK (renal model, Madin-Darby canine kidney cells) and PC12 (NGF treated; neuronal model) cell lines and followed standard protocols. Briefly, cells were seeded into 96-well plates, after incubation for 24 h, the medium was replaced with fresh cell culture medium containing the products (range 0-1.2 mg/mL). Negative and positive controls consisted of plates in the absence of the test compound and plates with sodium dodecyl sulfate (0.02% w/v), respectively. Cell viability was assayed with the tetrazolium salt (4-[3-(4- iodophenyl)-2-(4-nitrophenyl)-2H-5-tetrazolio]-1,3-benzene disulfonate) (WST-1). The relative WST-1 absorbance was recorded at 450 nm.
(§3) The products at concentrations ranging from 0 to 1.2 mg/mL were tested (triplicate) and in two independent experiments. The statistical analysis of the data was performed by using non-linear regression (curve-fit) and the model used agreed with the four parameter logistic model (4PL), also called the Hill-Slope model (sigmoid model), with the following equation: […]
(§4) where y is the percent activity and x is the corresponding concentration. The quantities determined where the point estimate IC50 (Half maximal (50%) inhibitory concentration (IC) of a substance, see Table II), the corresponding 95% confidence interval and R^2 (measures the goodness of fit) are shown in the Supplementary Table S2.

[2] = system: human dermic fibroblasts (hDF); assay: In vitro cytotoxicity (WST-1 cell viability), hDF; assay type: cell-based; conditions: for IC50 hDF Exp1: Supplementary Table S2, experiment 1; for IC50 hDF Exp2: Supplementary Table S2, experiment 2; for IC50 hDF: cytotoxicity, WST-1
Experimental: as §2, §3, §4

[3] = system: Madine-Darby canine kidney cells (MDCK, renal model); assay: In vitro cytotoxicity (WST-1 cell viability), MDCK; assay type: cell-based; conditions: for IC50 MDCK Exp1: Supplementary Table S2, experiment 1; for IC50 MDCK Exp2: Supplementary Table S2, experiment 2; for IC50 MDCK: cytotoxicity, WST-1
Experimental: as §2, §3, §4

S. aureus ATTC 6538 = assay: microbe, parasite or virus in culture; assay type: cell-based, Staphylococcus aureus; conditions: ATTC 6538
Experimental: as §1

P. aeruginosa = system: P. aeruginosa
Experimental: (§5) Strains of E. coli and P. aeruginosa with resistance to quinolones and carbapenems as well as multi-drug-resistant bacteria were tested.
as §1

E. coli = system: E. coli
Experimental: as §5, §1

E. faecalis ATTC 29212 = assay: microbe, parasite or virus in culture; assay type: cell-based, Enterococcus faecalis; conditions: ATTC 29212
Experimental: Lipopeptide 39 was chosen for this, as it is known that long fatty acids tend to favor activity against Gram-positive bacteria in polymyxin analogs. […] In summary, new broad-spectrum antimicrobial lipopeptides were achieved.
as §1

S. aureus = assay: microbe, parasite or virus in culture; assay type: cell-based, Staphylococcus aureus
Experimental: as §1

[4] = resistant to nalidixic acid, cotrimoxazole and ampicillin

Structure (SMILES)	MIC P. aeruginosa (P. aeruginosa ATTC 9027)	MIC E. coli (E. coli ATTC 8739)	IC50 PC12 [1]	IC50 hDF Exp1 [2]	IC50 hDF Exp2 [2]	IC50 hDF [2]	IC50 MDCK Exp1 [3]	IC50 MDCK Exp2 [3]	IC50 MDCK [3]	MIC S. aureus (S. aureus ATTC 6538)	MIC E. faecalis Wild type ATTC 29212 (E. faecalis ATTC 29212)	MIC S. aureus DR, MR SAU.1616 (S. aureus)	MIC S. aureus DR, MS SAU.278 (S. aureus)	MIC S. aureus MR ATTC 43300 (S. aureus)	MIC S. aureus MR SAU.1118 (S. aureus)	MIC S. aureus MS ATTC 29213 (S. aureus)	other results
CCCCCCCCC(=O)N[C@@H](CCCNC(=N)N)C(=O)N[C@H](C(=O)N[C@@H](CCCNC(=N)N)C(=O)N[C@H]1CSSC[C@@H](C(N)=O)NC(=O)[C@H](CCCNC(=N)N)NC(=O)[C@H](CCCNC(=N)N)NC(=O)[C@H](CC(C)C)NC(=O)[C@@H](Cc2ccccc2)NC(=O)[C@H](CCCNC(=N)N)NC1=O)[C@@H](C)O [Analog 12] (Nonanoyl-RTRCR[dF]LRRC-NH2; disulfide 4-10)	16 to 32 µg/mL	8 to 16 µg/mL	225 µg/mL (≈ 150 µM)	147 µg/mL (≈ 97.7 µM)	181 µg/mL (≈ 120 µM)	164 µg/mL (≈ 109 µM)	233 µg/mL (≈ 155 µM)	147 µg/mL (≈ 97.7 µM)	190 µg/mL (≈ 126 µM)	8 µg/mL (≈ 5.32 µM)							
CCCCCCCCCCCC(=O)N[C@@H](CCN)C(=O)N[C@H](C(=O)N[C@@H](CCN)C(=O)N[C@H]1CSSC[C@H](C(N)=O)NC(=O)[C@H](CCN)NC(=O)[C@H](CCN)NC(=O)[C@H](CCCC)NC(=O)[C@@H](Cc2ccccc2)NC(=O)[C@H](CCN)NC1=O)[C@@H](C)O [Analog 39, dodecanoyl-Dab-Thr-Dab-Cys-Dab-Phe-Nle-Dab-Dab-Cys] (Lauroyl-[Dab]T[Dab]C[Dab][dF][Nle][Dab][Dab][dC]-NH2; disulfide 4-10)	1 µg/mL (≈ 0.79 µM)	4 µg/mL (≈ 3.16 µM)									2 to 4 µg/mL	8 µg/mL (≈ 6.32 µM)	2 µg/mL (≈ 1.58 µM)	1 µg/mL (≈ 0.79 µM)	1 µg/mL (≈ 0.79 µM)	1 µg/mL (≈ 0.79 µM)	MIC P. aeruginosa 38a (P. aeruginosa): 1 µg/mL (≈ 0.79 µM); MIC P. aeruginosa 40b (P. aeruginosa): 2 µg/mL (≈ 1.58 µM); MIC E. coli NDM-1 (E. coli; highly-resistant, New Delhi metallo-beta-lactamase gene): 0.5 µg/mL (≈ 0.395 µM); MIC E. coli VAL 5 (E. coli; resistant to nalidixic acid): 0.5 µg/mL (≈ 0.395 µM); MIC E. coli MAC 21a (E. coli; [4]): 1 µg/mL (≈ 0.79 µM); MIC E. coli VAL 10 (E. coli; [4]): 0.5 µg/mL (≈ 0.395 µM)
CCCCCCCCCC(=O)N[C@@H](Cc1c[nH]c2ccccc12)C(=O)N[C@H](CC(N)=O)C(=O)N[C@@H](CC(=O)O)C(=O)N[C@@H]1C(=O)NCC(=O)N[C@@H](CCCN)C(=O)N[C@@H](CC(=O)O)C(=O)N[C@H](C)C(=O)N[C@@H](CC(=O)O)C(=O)NCC(=O)N[C@H](CO)C(=O)N[C@@H]([C@H](C)CC(=O)O)C(=O)N[C@@H](CC(=O)c2ccccc2N)C(=O)O[C@@H]1C [Daptomycin]										1 µg/mL (≈ 0.617 µM)	2 to 4 µg/mL	16 µg/mL (≈ 9.87 µM)	8 µg/mL (≈ 4.94 µM)	0.5 µg/mL (≈ 0.309 µM)	0.5 µg/mL (≈ 0.309 µM)	0.5 µg/mL (≈ 0.309 µM)	

Continued, in another order:

MIC P. aeruginosa (P. aeruginosa ATTC 9027)	MIC E. coli (E. coli ATTC 8739)	Structure (SMILES)	IC50 PC12 [1]	IC50 hDF Exp1 [2]	IC50 hDF Exp2 [2]	IC50 hDF [2]	IC50 MDCK Exp1 [3]	IC50 MDCK Exp2 [3]	IC50 MDCK [3]	MIC S. aureus (S. aureus ATTC 6538)	MIC E. faecalis Wild type ATTC 29212 (E. faecalis ATTC 29212)	MIC S. aureus DR, MR SAU.1616 (S. aureus)	MIC S. aureus DR, MS SAU.278 (S. aureus)	MIC S. aureus MR ATTC 43300 (S. aureus)	MIC S. aureus MR SAU.1118 (S. aureus)	MIC S. aureus MS ATTC 29213 (S. aureus)	other results
16 µg/mL (≈ 12 µM)	8 µg/mL (≈ 5.99 µM)	CCCCCCCCC(=O)N[C@@H](CCCNC(=N)N)C(=O)N[C@H](C(=O)N[C@@H](CCN)C(=O)N[C@H]1CSSC[C@@H](C(N)=O)NC(=O)[C@H](CCN)NC(=O)[C@H](CCCNC(=N)N)NC(=O)[C@H](CC(C)C)NC(=O)[C@@H](Cc2ccccc2)NC(=O)[C@H](CCN)NC1=O)[C@@H](C)O [Analog 5, nonanoyl-Arg-Thr-Dab-Cys-Dab-Phe-Leu-Arg-Dab-Cys] (Nonanoyl-RT[Dab]C[Dab][dF]LR[Dab]C-NH2; disulfide 4-10)	629 µg/mL (≈ 471 µM)	555 µg/mL (≈ 416 µM)	513 µg/mL (≈ 384 µM)	534 µg/mL (≈ 400 µM)	541 µg/mL (≈ 405 µM)	554 µg/mL (≈ 415 µM)	548 µg/mL (≈ 410 µM)								
8 µg/mL (≈ 5.75 µM)	4 µg/mL (≈ 2.87 µM)	CCCCCCCCC(=O)N[C@@H](CCCNC(=N)N)C(=O)N[C@H](C(=O)N[C@@H](CCCNC(=N)N)C(=O)N[C@H]1CSSC[C@@H](C(N)=O)NC(=O)[C@H](CCN)NC(=O)[C@H](CCCNC(=N)N)NC(=O)[C@H](CC(C)C)NC(=O)[C@@H](Cc2ccccc2)NC(=O)[C@H](CCN)NC1=O)[C@@H](C)O [Analog 8, nonanoyl-Arg-Thr-Arg-Cys-Dab-Phe-Leu-Arg-Dab-Cys] (Nonanoyl-RTRC[Dab][dF]LR[Dab]C-NH2; disulfide 4-10)	595 µg/mL (≈ 428 µM)	421 µg/mL (≈ 302 µM)	502 µg/mL (≈ 361 µM)	461 µg/mL (≈ 331 µM)	417 µg/mL (≈ 299 µM)	528 µg/mL (≈ 379 µM)	472 µg/mL (≈ 339 µM)								
